Assay results published in the supplement of paper PMC8960247.
± gives the standard error.

Columns and labels:
621-103 (TSC2-rescued) = experiment: relative viability vs DMSO; higher = less cytotoxic; conditions: serum: 10% FBS, 72 h
621-102 (TSC2-deficient) [1] = experiment: as above; conditions: serum: 10% FBS, 72 h
UMB1949 (TSC2-deficient) = experiment: relative viability vs DMSO (fraction); higher = less cytotoxic; conditions: serum: 0.1% FBS, 72 h;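 further: renal angiomyolipoma cell lines screened in 384-well plates, viability normalized per plate to DMSO-treated cells, each plate carrying 50 nM rapamycin and 1 µM staurosporine controls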
621-102 (TSC2-deficient) [2] = experiment: as above; conditions: serum: 0.1% FBS, 72 h

SMILES | relative viability (621-103 (TSC2-rescued); 0.0001 µM) [%] | relative viability (621-103 (TSC2-rescued); 0.001 µM) [%] | relative viability (621-103 (TSC2-rescued); 0.01 µM) [%] | relative viability (621-103 (TSC2-rescued); 0.1 µM) [%] | relative viability (621-103 (TSC2-rescued); 1 µM) [%] | relative viability (621-103 (TSC2-rescued); 10 µM) [%] | relative viability (621-102 (TSC2-deficient) [1]; 0.0001 µM) [%] | relative viability (621-102 (TSC2-deficient) [1]; 0.001 µM) [%] | relative viability (621-102 (TSC2-deficient) [1]; 0.01 µM) [%] | relative viability (621-102 (TSC2-deficient) [1]; 0.1 µM) [%] | relative viability (621-102 (TSC2-deficient) [1]; 1 µM) [%] | relative viability (621-102 (TSC2-deficient) [1]; 10 µM) [%] | relative viability (UMB1949 (TSC2-deficient); 0.0128 nM) | relative viability (UMB1949 (TSC2-deficient); 0.064 nM) | relative viability (UMB1949 (TSC2-deficient); 0.32 nM) | relative viability (UMB1949 (TSC2-deficient); 1.6 nM) | relative viability (UMB1949 (TSC2-deficient); 8 nM) | relative viability (UMB1949 (TSC2-deficient); 40 nM) | relative viability (UMB1949 (TSC2-deficient); 200 nM) | relative viability (UMB1949 (TSC2-deficient); 1000 nM) | relative viability (UMB1949 (TSC2-deficient); 5000 nM) | relative viability (621-102 (TSC2-deficient) [2]; 0.0128 nM) | relative viability (621-102 (TSC2-deficient) [2]; 0.064 nM) | relative viability (621-102 (TSC2-deficient) [2]; 0.32 nM) | relative viability (621-102 (TSC2-deficient) [2]; 1.6 nM) | relative viability (621-102 (TSC2-deficient) [2]; 8 nM) | relative viability (621-102 (TSC2-deficient) [2]; 40 nM) | relative viability (621-102 (TSC2-deficient) [2]; 200 nM) | relative viability (621-102 (TSC2-deficient) [2]; 1000 nM) | relative viability (621-102 (TSC2-deficient) [2]; 5000 nM)
CC(C)(C)c1cnc(CSc2cnc(NC(=O)C3CCNCC3)s2)o1 | 99.3 ± 1.4 | 96.57 ± 0.27 | 96.563 ± 0.042 | 49.5 ± 4.3 | 21.27 ± 0.21 | 16.3 ± 1.4 | 102.3 ± 0.73 | 107.6 ± 0.94 | 102 ± 3.9 | 51.1 ± 3.1 | 15.7 ± 0.57 | 8.84 ± 0.46 | 1.14 | 1.05 | 1.1 | 1.12 | 1.07 | 0.771 | 0.00698 | 0.00188 | 0.00107 | 1.06 | 1.14 | 1.02 | 1.07 | 0.654 | 0.112 | 0.00431 | 0.00292 | 0.00164
CCOc1ccn(-c2ccc(F)cc2)c(=O)c1C(=O)Nc1ccc(Oc2ccnc(N)c2Cl)c(F)c1 | 88.1 ± 3.7 | 93.98 ± 0.29 | 98.93 ± 0.32 | 99.4 ± 1.1 | 97.6 ± 3.9 | 90.8 ± 4.7 | 106 ± 3.3 | 101.7 ± 0.87 | 103 ± 2.8 | 104.97 ± 0.1 | 100 ± 1.6 | 97.17 ± 0.96 | 0.977 | 1.06 | 0.983 | 1.01 | 0.867 | 1.03 | 1.02 | 0.984 | 0.0304 | 1.04 | 0.924 | 0.972 | 0.852 | 0.854 | 0.991 | 0.877 | 0.756 | 0.0351
CO[C@@H](C(=O)N1Cc2[nH]nc(NC(=O)c3ccc(N4CCN(C)CC4)cc3)c2C1)c1ccccc1 | 85.7 ± 2.3 | 90.8 ± 0.93 | 92.6 ± 5 | 89.5 ± 2.8 | 62.3 ± 1.8 | 11.5 ± 0.39 | 105 ± 3.9 | 101 ± 2.8 | 98 ± 8.5 | 91.8 ± 2.3 | 64.1 ± 0.79 | 31.6 ± 0.91 | 0.936 | 0.879 | 0.868 | 1.02 | 0.261 | 0.037 | 0.0271 | 0.00276 | 0.000648 | 0.925 | 0.972 | 0.92 | 0.989 | 0.816 | 0.325 | 0.0618 | 0.0757 | 0.00444
CN(C)CC[C@H](CSc1ccccc1)Nc1ccc(S(=O)(=O)NC(=O)c2ccc(N3CCN(Cc4ccccc4-c4ccc(Cl)cc4)CC3)cc2)cc1[N+](=O)[O-] [ABT-737] | 101 ± 1.5 | 99.05 ± 0.48 | 97.82 ± 0.7 | 98.61 ± 0.42 | 91.97 ± 0.57 | 43.5 ± 2.2 | 122.1 ± 0.59 | 118 ± 1.4 | 113 ± 1.9 | 107 ± 3.3 | 101 ± 3.6 | 43.2 ± 2 | 1.02 | 0.975 | 0.941 | 0.965 | 0.92 | 0.869 | 0.803 | 0.197 | 0.00643 | 0.888 | 0.796 | 0.677 | 0.564 | 0.491 | 0.175 | 0.00664 | 0.00508 | 0.00348
